# Measured values as given in patent US20140287997A1, “USE OF GROWTH HORMONE OR GROWTH HORMONE RECEPTOR AGONISTS TO PREVENT OR TREAT STRESS-SENSITIVE PSYCHIATRIC ILLNESS” (Massachusetts Institute of Technology, priority 2013, published 2014).
# How the values were obtained:
# [1] = target: T1, ghrelin receptor in BLA cells (Rattus norvegicus, UniProt O08725); assay: GH release from short-term BLA cell cultures; type: cell-based; conditions: versus vehicle, P<0.05
# T1 construct: short-term cultures were generated of BLA cells and measured GH protein in the media following treatment with either MK-0677 or vehicle; endogenous in cells; host or cells: short-term primary cultures of basolateral amygdala (BLA) cells
# T1 sequence (O08725 whole entry): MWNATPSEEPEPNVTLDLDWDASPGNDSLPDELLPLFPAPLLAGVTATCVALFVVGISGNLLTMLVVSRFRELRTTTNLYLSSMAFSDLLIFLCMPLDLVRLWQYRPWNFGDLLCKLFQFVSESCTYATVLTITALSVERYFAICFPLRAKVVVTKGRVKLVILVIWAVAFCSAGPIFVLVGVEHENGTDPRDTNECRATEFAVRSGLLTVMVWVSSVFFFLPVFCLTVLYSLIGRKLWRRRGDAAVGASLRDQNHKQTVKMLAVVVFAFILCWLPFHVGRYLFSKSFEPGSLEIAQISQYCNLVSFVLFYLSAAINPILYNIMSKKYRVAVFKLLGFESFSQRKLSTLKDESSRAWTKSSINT
# From the text: To determine whether ghrelin receptor stimulation in amygdala triggers the release of GH as it does from the pituitary,^43 short-term cultures were generated of BLA cells and measured GH protein in the media following treatment with either MK-0677 or vehicle.
# [2] = test system: rats; assay: Sucrose preference (measuring hedonia) as a measure of depression; type: in vivo, rat; conditions: repeated ghrelin receptor stimulation
# From the text: Sucrose preference (measuring hedonia) as a measure of depression with low dose MK0677 or high dose MK0677 was also examined. […] Repeated ghrelin receptor stimulation (mimicking one effect of chronic stress, which is to enhance the circulating levels of ghrelin and thus ghrelin signaling) induces depressive behaviors in rats.
# [3] = test system: GH-mediated signaling in the BLA; assay: Auditory fear conditioning after intra-BLA AAV (GHA or GFP) and 10 days systemic MK-0677 or saline; type: in vivo, rat; conditions: repeated systemic MK-0677 for 10 days
# Protocol: An AAV viral construct to overexpress a mutant form of the rat GH protein (GHA) that acts as a functional antagonist to endogenous GH was generated.^49,50 Following infusion of AAV to overexpress either GHA or a control protein (GFP) (FIG. 5f), rats were permitted to recover for 5 weeks. After recovery, rats that were infused with GHA received daily injections of either the ghrelin receptor agonist MK-0677 (MK) or saline (SAL) for 10 days. […] At 24 h after the final injection, all rats were subjected to auditory fear conditioning, followed by assessment of long-term auditory fear memory in a subsequent session 48 h later.
# [4] = test system: rats; assay: Forced swim as a measure of depression; type: in vivo, rat; conditions: high dose, repeated ghrelin receptor stimulation
# From the text: Forced swim as a measure of depression was also examined. […] Repeated ghrelin receptor stimulation (mimicking one effect of chronic stress, which is to enhance the circulating levels of ghrelin and thus ghrelin signaling) induces depressive behaviors in rats.
compound,measurement,setting,value
CC(C)(N)C(=O)N[C@H](COCc1ccccc1)C(=O)N1CCC2(CC1)CN(S(C)(=O)=O)c1ccccc12 [MK-0677],GH protein released in the media,[1],significantly elevated release of GH
same,sucrose preference (hedonia),[2]; high dose,led to anhedonia
same,sucrose preference (hedonia),[2]; low dose,led to anhedonia
same,long-term auditory fear memory,[3],fear-enhancing effects
same,forced swim behaviour,[4],led to immobility in the forced swim
